# In patent US7829305B2, “Method for monitoring the presence of biofilmforming microorganisms in paper industry” (Kemira Oyj, priority 2003, dated 2010):
# Test system: biofilms formed in a paper machine
# Test: Inactivation of biofilms pre-grown in situ on sampler pegs; re-growth of new biofilm in the culturing step, safranin staining, visual evaluation
# Type: cell-based
# Settings: for formation of new biofilm during the culturing step after treatment of the biofilm on the pegs: biofilm grown 68 h in clear filtrate silo of neutral fine paper machine at 52° C., treatment 1 to 50 ppm (active substance), stagnant 52° C., 2 h, culturing in R2-broth 250 rpm, 52° C., 17 h, safranin, evaluated visually
# From the text: In this experiment one embodiment of the sampler device of the invention is used to illustrate the method of the invention for determining the effect of several anti-biofilm agents in inactivation of biofilms formed in a paper machine.
# In this embodiment the sampler device comprises 12 stainless steel pegs fixed from one end on a stainless steel lid. The lid with the pegs is presented in FIG. 1 together with a treatment plate with 12 wells adapted to receive the pegs when the lid is placed on the plate. Suitably the lid was designed to be complementary with the commercially available 12-well polystyrene plates.
# Three sampler lids are immersed in the clear filtrate silo of a neutral fine paper machine and allowed to hang immersed in said filtrate at the temperature of 52° C. of the process water, for 68 h. Then the samplers are removed, rinsed once with sterilized tap water, and each lid is placed on a 12-well treatment plate so that the pegs with biofilms formed in situ in the process on the surface thereof are immersed in the treatment solution within the wells, each peg in one well, while being supported at the one end by the lid.
# Each well of a treatment plate contains 3.5 ml of sterilized tap water alone (reference samples) or 3.5 ml of sterilized tap water together with an anti-biofilm agent at a concentration of 1 to 50 ppm (active substance). The maximum volume of the wells is used so that almost the whole length of the pegs will be exposed to the anti-biofilm agents (the treatment solution). The tested anti-biofilm agents are BCDMH (Bromo-chloro-5,5-dimethyl hydantoine), a mixture of 5-chloro-2-methyl-4-isothiazolin-3-one and 2-methyl-4-isothiazolin-3-one, THPS (tetrakis(hydroxy-methyl)phosphomiumsulphate, DBNPA (2,2-dibromo-2-cyanoacetamide), glutar-aldehyde, MBT (methylene-bis(thiocyanate)), BNPD (bromo-2-nitropropan-1,3-diol), all of which are commercially available.
# The anti-biofilm treatment step is carried out by incubating the plates with the lid thereon stagnant at 52° C. for 2 h. After the treatment step the lids are removed from the plate and rinsed three times with sterilized tap water and then placed on the 12-well culturing plates, which are similar to the treatment plates, but the wells contain 2.5 ml of sterile R2-broth (Difco). The culturing plates (plate+lid with the pegs immersed in the wells) are shaken at 250 rpm, at 52° C., for 17 h.
# Finally, the pegs and growth media are removed from the wells, the wells are rinsed once with tap water and the microbes adhered on the walls of the wells are stained with safranin. The amount of biofilm produced by the microbes that survived alive through the treatment step with anti-biofilm agents is evaluated visually.
Structure (SMILES),formation of new biofilm during the culturing step after treatment of the biofilm on the pegs,"lowest concentration of anti-biofilm agent achieving prevention of re-growth of new biofilm in the culturing step (treatment 2 h at 52° C., culturing 17 h at 52° C. in R2-broth, concentration as active substance) [ppm]"
"CC1(C)C(=O)N(Br)C(=O)N1Cl [BCDMH, Bromo-chloro-5,5-dimethyl hydantoine]",no new biofilm is formed,–
"O=[N+]([O-])C(Br)(CO)CO [BNPD, bromo-2-nitropropan-1,3-diol]",still capable to form new biofilm,–
"N#CC(Br)(Br)C(N)=O [DBNPA, 2,2-dibromo-2-cyanoacetamide]",no new biofilm is formed,5
"N#CSCSC#N [MBT, methylene-bis(thiocyanate)]",still capable to form new biofilm,–
"O=S(=O)([O-])[O-].OC[P+](CO)(CO)CO.OC[P+](CO)(CO)CO [THPS, tetrakis(hydroxy-methyl)phosphomiumsulphate]",no new biofilm is formed,–
O=CCCCC=O [glutaraldehyde],no new biofilm is formed,–
